{
  "source": "the supplement of paper PMC10307832",
  "experiment_in_all_cases": "relative viability (nuclei count vs DMSO), 5 days (fraction); higher = more cells survive",
  "key": {"[1]": {"compound": "CO[C@@H]1[C@H](N(C)C(=O)c2ccccc2)C[C@H]2O[C@]1(C)n1c3ccccc3c3c4c(c5c6ccccc6n2c5c31)C(=O)NC4 [Midostaurin] + CC(=O)c1c(C)c2cnc(Nc3ccc(N4CCNCC4)cn3)nc2n(C2CCCC2)c1=O [Palbociclib] (partner 0.5 µM)", "in_short": "(§1)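 Values are medians from duplicate plates. Each reflects relative viability, defined as the nuclei count of treated wells over that of vehicle wells. Lung cancer cell lines in 1536-well plates were pin-tool dosed one day after seeding with one drug alone or with a fixed anchor-drug dose plus five library-drug doses (not always all listed) in √10 steps, then fixed, stained and imaged at 4× after 5 days.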"}, "Midostaurin + Lapatinib": {"compound": "CO[C@@H]1[C@H](N(C)C(=O)c2ccccc2)C[C@H]2O[C@]1(C)n1c3ccccc3c3c4c(c5c6ccccc6n2c5c31)C(=O)NC4 [Midostaurin] + CS(=O)(=O)CCNCc1ccc(-c2ccc3ncnc(Nc4ccc(OCc5cccc(F)c5)c(Cl)c4)c3c2)o1 [Lapatinib] (partner 2 µM)", "in_short": "as §1"}, "[2]": {"compound": "COc1cc(-c2nn([C@H]3CC[C@H](N4CCN(C(C)=O)CC4)CC3)c3ncnc(N)c23)ccc1NC(=O)c1cc2ccccc2n1C + CCNC(=O)c1noc(-c2cc(C(C)C)c(O)cc2O)c1-c1ccc(CN2CCOCC2)cc1 [Luminespib] (partner 0.01 µM)", "in_short": "as §1"}, "[3]": {"compound": "COc1cc(-c2nn([C@H]3CC[C@H](N4CCN(C(C)=O)CC4)CC3)c3ncnc(N)c23)ccc1NC(=O)c1cc2ccccc2n1C + CC(=O)c1c(C)c2cnc(Nc3ccc(N4CCNCC4)cn3)nc2n(C2CCCC2)c1=O [Palbociclib] (partner 0.5 µM)", "in_short": "as §1"}, "[4]": {"compound": "COc1cc(-c2nn([C@H]3CC[C@H](N4CCN(C(C)=O)CC4)CC3)c3ncnc(N)c23)ccc1NC(=O)c1cc2ccccc2n1C + CC(=O)Nc1cccc(-n2c(=O)n(C3CC3)c(=O)c3c(Nc4ccc(I)cc4F)n(C)c(=O)c(C)c32)c1 [Trametinib] (partner 0.02 µM)", "in_short": "as §1"}},
  "data": [
    {"cell line": "UMC-11", "values": [
      {"measurement": "relative viability", "setting": "[1]; first compound 0.01 µM", "value": 0.352},
      {"measurement": "relative viability", "setting": "[1]; first compound 0.03162 µM", "value": 0.391},
      {"measurement": "relative viability", "setting": "[1]; first compound 0.1 µM", "value": 0.364},
      {"measurement": "relative viability", "setting": "[1]; first compound 0.3162 µM", "value": 0.284},
      {"measurement": "relative viability", "setting": "Midostaurin + Lapatinib; first compound 0.01 µM", "value": 0.936},
      {"measurement": "relative viability", "setting": "Midostaurin + Lapatinib; first compound 0.03162 µM", "value": 0.836},
      {"measurement": "relative viability", "setting": "Midostaurin + Lapatinib; first compound 0.1 µM", "value": 0.937},
      {"measurement": "relative viability", "setting": "Midostaurin + Lapatinib; first compound 0.3162 µM", "value": 0.513},
      {"measurement": "relative viability", "setting": "[2]; first compound 0.0128 µM", "value": 0.928},
      {"measurement": "relative viability", "setting": "[2]; first compound 0.04048 µM", "value": 0.956},
      {"measurement": "relative viability", "setting": "[2]; first compound 0.128 µM", "value": 0.922},
      {"measurement": "relative viability", "setting": "[2]; first compound 1.28 µM", "value": 0.818},
      {"measurement": "relative viability", "setting": "[3]; first compound 0.0128 µM", "value": 0.349},
      {"measurement": "relative viability", "setting": "[3]; first compound 0.04048 µM", "value": 0.341},
      {"measurement": "relative viability", "setting": "[3]; first compound 0.128 µM", "value": 0.335},
      {"measurement": "relative viability", "setting": "[3]; first compound 1.28 µM", "value": 0.341},
      {"measurement": "relative viability", "setting": "[4]; first compound 0.0128 µM", "value": 0.654},
      {"measurement": "relative viability", "setting": "[4]; first compound 0.04048 µM", "value": 0.689},
      {"measurement": "relative viability", "setting": "[4]; first compound 0.128 µM", "value": 0.67},
      {"measurement": "relative viability", "setting": "[4]; first compound 1.28 µM", "value": 0.661}
    ]}
  ]
}
